In patent US20130178469A1, “NOVEL ANTIVIRAL AGENTS” (SHANGHAI INSTITUTE OF ORGANIC CHEMISTRY (SIOC), priority 2010, published 2013):
pEC50: −log10 of the molar value. Like-named read-outs stand apart in the source and are kept apart here.

What was measured:
HIV-1 = assay: Luciferase Assay with single-round reporter virus (NLXLuc or HIV-Luc); format: cell-based; settings: Human immunodeficiency virus 1
Source text: Infectivity assays using reporter viruses derived from lentiviral vectors capable of a single round of infection were used to determine the activity (EC50) of compounds. The DNA used to generate viruses for infection was the full-length HIV-1 genome which had been envelope-deleted. In addition, a reporter gene (the firefly luciferase gene from Photinus pyralis) was cloned into the nefregion of the HIV backbone for ease of assay readout. […]. Culture supernatants containing VSV-G pseudotyped virions were harvested 64 h post transfection, clarified by centrifugation to remove cell debris, and frozen at −70° C. until use.
293FT cells were plated out at 12000 cells per well in CellView 96-well cell culture plates (Invitrogen) 16 h prior to compound addition. Compounds were preincubated with cells for 4 h at 37° C. prior to the addition of virus sufficient to generate approximately 10000 Luciferase light units (as measured by the Victor Wallace luminometer) upon assaying using the Bright-Glo™ reagent (Promega) according to the manufacturer's instructions at 48 h post infection.
In the tables below, this assay is referred to as NLXLuc or HIV-Luc.

[1] = Bioavailability and pharmacokinetic profile following intravenous and oral administration; format: in vivo, Male Sprague Dawley Rats; settings: for MRT inf: read-out: MRT(0-∞); for Vd: read-out: Vz
Description: (§1) Method: For IV infusion over 10 minutes the compound of Example 3.4 was dissolved in 20% DMSO, 30% PEG400 and 50% Water. For oral (PO) dosing AVX62738 was dissolved in 0.5% benzyl alcohol and 0.4% Tween 80 and 99.1% 0.5% hydroxypropylmethylcellulose. Compounds were dosed IV and then after a one week washout, orally in the same rats. (Body weight: Rat 1: 254.7 g; Rat 2: 253.4 g). Ex-vivo plasma samples were assayed for AVX62738 using an LC-ms method of Lower limit of quantitation. (LLOQ)=2.5 ng/mL.

[2] = Clinical Observation following intravenous and oral administration; format: in vivo, Male Sprague Dawley Rats
Description: as §1

[3] = male, Sprague Dawley, rat, plasma, iv, 5 mg/kg, IV 5 mg/kg, Mean
[4] = male, Sprague Dawley, rat, plasma, iv, 5 mg/kg, IV 5 mg/kg, Rat 1
[5] = male, Sprague Dawley, rat, plasma, iv, 5 mg/kg, IV 5 mg/kg, Rat 2
[6] = male, Sprague Dawley, rat, plasma, iv, 5 mg/kg, IV (5 mg/kg), Mean
[7] = male, Sprague Dawley, rat, plasma, iv, 5 mg/kg, IV (5 mg/kg), animal 701
[8] = male, Sprague Dawley, rat, plasma, po, 10 mg/kg, PO 10 mg/kg, Mean
[9] = male, Sprague Dawley, rat, plasma, po, 10 mg/kg, PO 10 mg/kg, Rat 1
[10] = male, Sprague Dawley, rat, plasma, po, 10 mg/kg, PO 10 mg/kg, Rat 2
[11] = male, Sprague Dawley, rat, plasma, po, 10 mg/kg, PO (10 mg/kg), Mean
[12] = male, Sprague Dawley, rat, plasma, po, 10 mg/kg, PO (10 mg/kg), animal 801
[13] = male, Sprague Dawley, rat, plasma, po, 10 mg/kg, PO (10 mg/kg), animal 802
[14] = male, Sprague-Dawley, rat, plasma, iv, 5 mg/kg, IV (5 mg/kg), animal 701
[15] = male, Sprague-Dawley, rat, plasma, iv, 5 mg/kg, IV (5 mg/kg), animal 702

In the case of `CN1CCN(c2cc(N3CCN(C)S3(=O)=O)c3nc(C(=O)NCc4ccc(F)cc4)c(O)c(=O)n3c2)CC1` [Example 3.4, 3-Hydroxy-9-(5-methyl-1,1-dioxo-1,6-[1,2,5]thiadiazolidin-2-yl)-7-(4-methyl-piperazin-1-yl)-4-oxo-4H-pyrido[1,2-a]pyrimidine-2-carboxylic acid 4-fluoro-benzylamide], the pEC50 (HIV-1) was 8.00 to 9.00, the “Plasma Concentration” value ([1]; IV 5 mg/kg, Rat 1, 24 hr) was “BLQ (BLQ: Below limit of quantitation)” and the “Plasma Concentration” value ([1]; IV 5 mg/kg, Rat 1, Pre-dose) was “BLQ (BLQ: Below limit of quantitation)”. For the same compound, the “Plasma Concentration” value ([1]; IV 5 mg/kg, Rat 2, 24 hr) was “BLQ (BLQ: Below limit of quantitation)”, the “Plasma Concentration” value ([1]; IV 5 mg/kg, Rat 2, Pre-dose) was “BLQ (BLQ: Below limit of quantitation)” and the CLz ([1]; IV (5 mg/kg), Mean) was 2.69 L/h/kg. The t1/2z ([1]; IV (5 mg/kg), Mean) was 80.4 min, the CLz ([1]; IV (5 mg/kg), animal 701) was 2.69 L/h/kg and the t1/2z ([1]; IV (5 mg/kg), animal 701) was 83.4 min. For the same compound, the CLz ([1]; IV (5 mg/kg), animal 702) was 2.69 L/h/kg, the t1/2z ([1]; IV (5 mg/kg), animal 702) was 77.4 min and the “Plasma Concentration” value ([1]; PO 10 mg/kg, Rat 1, Pre-dose) was “BLQ (BLQ: Below limit of quantitation)”. For the same compound, the “Plasma Concentration” value ([1]; PO 10 mg/kg, Rat 2, 6 hr) was “BLQ (BLQ: Below limit of quantitation)”, the “Plasma Concentration” value ([1]; PO 10 mg/kg, Rat 2, 8 hr) was “BLQ (BLQ: Below limit of quantitation)” and the “Plasma Concentration” value ([1]; PO 10 mg/kg, Rat 2, 24 hr) was “BLQ (BLQ: Below limit of quantitation)”. The “Plasma Concentration” value ([1]; PO 10 mg/kg, Rat 2, Pre-dose) was “BLQ (BLQ: Below limit of quantitation)”, the F ([1]; PO (10 mg/kg), Mean) was 2.95% and the t1/2z ([1]; PO (10 mg/kg), Mean) was 74.4 min. The F ([1]; PO (10 mg/kg), animal 801) was 2.39%, the t1/2z ([1]; PO (10 mg/kg), animal 801) was 99 min and the F ([1]; PO (10 mg/kg), animal 802) was 3.50%. The t1/2z ([1]; PO (10 mg/kg), animal 802) was 49.8 min, the concentration at 0.083 hr [1, 3] was 3.03 µg/mL and the concentration at 0.25 hr [1, 3] was 2.06 µg/mL. It also gave a concentration at 0.5 hr [1, 3] of 1.14 µg/mL, a concentration at 1 hr [1, 3] of 0.527 µg/mL and a concentration at 2 hr [1, 3] of 0.113 µg/mL. It also gave a concentration at 4 hr [1, 3] of 0.019 µg/mL, a concentration at 6 hr ([1]; male, Sprague Dawley, rat, plasma, iv, 5 mg/kg, IV 5 mg/kg, Mean, 6 hr) of 0.00621 µg/mL and a concentration at 8 h ([1]; male, Sprague Dawley, rat, plasma, iv, 5 mg/kg, IV 5 mg/kg, Mean, 8 hr) of 0.00241 µg/mL. The concentration at 0.083 hr [1, 4] was 2.71 µg/mL, the concentration at 0.25 hr [1, 4] was 1.99 µg/mL and the concentration at 0.5 hr [1, 4] was 1.21 µg/mL. For the same compound, the concentration at 1 hr [1, 4] was 0.548 µg/mL, the concentration at 2 hr [1, 4] was 0.123 µg/mL and the concentration at 4 hr [1, 4] was 0.0193 µg/mL. It also gave a concentration at 6 hr ([1]; male, Sprague Dawley, rat, plasma, iv, 5 mg/kg, IV 5 mg/kg, Rat 1, 6 hr) of 0.00544 µg/mL, a concentration at 8 h ([1]; male, Sprague Dawley, rat, plasma, iv, 5 mg/kg, IV 5 mg/kg, Rat 1, 8 hr) of 0.00264 µg/mL and a concentration at 0.083 hr [1, 5] of 3.35 µg/mL. For the same compound, the concentration at 0.25 hr [1, 5] was 2.13 µg/mL, the concentration at 0.5 hr [1, 5] was 1.06 µg/mL and the concentration at 1 hr [1, 5] was 0.506 µg/mL. The concentration at 2 hr [1, 5] was 0.104 µg/mL, the concentration at 4 hr [1, 5] was 0.0187 µg/mL and the concentration at 6 hr ([1]; male, Sprague Dawley, rat, plasma, iv, 5 mg/kg, IV 5 mg/kg, Rat 2, 6 hr) was 0.00697 µg/mL. The concentration at 8 h ([1]; male, Sprague Dawley, rat, plasma, iv, 5 mg/kg, IV 5 mg/kg, Rat 2, 8 hr) was 0.00219 µg/mL, the AUC(0-inf) [1, 6] was 1.86 µg·h/mL and the AUC(0-t) [1, 6] was 1.85 µg·h/mL. It also gave a Cmax [1, 6] of 3.03 µg/mL, a Tmax [1, 6] of 4.8 min and an MRT inf [1, 6] of 39.6 min. It also gave a Vd [1, 6] of 5.21 L/kg, an AUC(0-inf) [1, 7] of 1.86 µg·h/mL and an AUC(0-t) [1, 7] of 1.86 µg·h/mL. The Tmax [1, 7] was 4.8 min, the MRT inf [1, 7] was 40.8 min and the concentration at 0.083 hr [1, 8] was 0.0352 µg/mL. For the same compound, the concentration at 0.25 hr [1, 8] was 0.0722 µg/mL, the concentration at 0.5 hr [1, 8] was 0.0636 µg/mL and the concentration at 1 hr [1, 8] was 0.0395 µg/mL. For the same compound, the concentration at 2 hr [1, 8] was 0.0141 µg/mL, the concentration at 4 hr [1, 8] was 0.00529 µg/mL and the concentration at 6 h ([1]; male, Sprague Dawley, rat, plasma, po, 10 mg/kg, PO 10 mg/kg, Mean, 6 hr) was 0.00131 µg/mL. It also gave a concentration at 0.083 hr [1, 9] of 0.0424 µg/mL, a concentration at 0.25 hr [1, 9] of 0.0662 µg/mL and a concentration at 0.5 hr [1, 9] of 0.0357 µg/mL. The concentration at 1 hr [1, 9] was 0.0209 µg/mL, the concentration at 2 hr [1, 9] was 0.0138 µg/mL and the concentration at 4 hr [1, 9] was 0.00562 µg/mL. It also gave a concentration at 6 hr ([1]; male, Sprague Dawley, rat, plasma, po, 10 mg/kg, PO 10 mg/kg, Rat 1, 6 hr) of 0.00262 µg/mL, a concentration at 8 h ([1]; male, Sprague Dawley, rat, plasma, po, 10 mg/kg, PO 10 mg/kg, Rat 1, 8 hr, not kept for calculation) of 0.148 µg/mL and a concentration at 24 h ([1]; male, Sprague Dawley, rat, plasma, po, 10 mg/kg, PO 10 mg/kg, Rat 1, 24 hr, not kept for calculation) of 0.00466 µg/mL. The concentration at 0.083 hr [1, 10] was 0.0281 µg/mL, the concentration at 0.25 hr [1, 10] was 0.0781 µg/mL and the concentration at 0.5 hr [1, 10] was 0.0916 µg/mL. It also gave a concentration at 1 hr [1, 10] of 0.0581 µg/mL, a concentration at 2 hr [1, 10] of 0.0143 µg/mL and a concentration at 4 hr [1, 10] of 0.00496 µg/mL. For the same compound, the AUC(0-inf) [1, 11] was 0.11 µg·h/mL, the AUC(0-t) [1, 11] was 0.103 µg·h/mL and the Cmax [1, 11] was 0.0789 µg/mL. It also gave a Tmax [1, 11] of 22.8 min, an MRT inf [1, 11] of 97.8 min and an AUC(0-inf) [1, 12] of 0.089 µg·h/mL. The AUC(0-t) [1, 12] was 0.0828 µg·h/mL, the Cmax [1, 12] was 0.0662 µg/mL and the Tmax [1, 12] was 15 min. For the same compound, the MRT inf [1, 12] was 122 min, the AUC(0-inf) [1, 13] was 0.13 µg·h/mL and the AUC(0-t) [1, 13] was 0.124 µg·h/mL. The Cmax [1, 13] was 0.0916 µg/mL, the Tmax [1, 13] was 30 min and the MRT inf [1, 13] was 73.2 min. For the same compound, the Cmax [1, 14] was 2.71 µg/mL, the Vd [1, 14] was 5.39 L/kg and the AUC(0-inf) [1, 15] was 1.86 µg·h/mL. The AUC(0-t) [1, 15] was 1.85 µg·h/mL, the Cmax [1, 15] was 3.35 µg/mL and the Tmax [1, 15] was 4.8 min. The MRT inf [1, 15] was 37.8 min, the Vd [1, 15] was 5.02 L/kg and the “Clinical Observation” value ([2]; following intravenous administration (5 mg/kg)) was “Following intravenous administration, no obvious abnormalities were”. For the same compound, the “Clinical Observation” value ([2]; following oral administration (10 mg/kg)) was “Following oral administration, no obvious abnormalities were observed”.
